Biological target: bovine rod opsin (unliganded, in ROS membranes) (Bos taurus, UniProt P02699)
Assay: intrinsic Trp fluorescence quenching at […] nm
Type: binding

bovine rod opsin (unliganded, in ROS membranes), sequence (P02699 whole entry): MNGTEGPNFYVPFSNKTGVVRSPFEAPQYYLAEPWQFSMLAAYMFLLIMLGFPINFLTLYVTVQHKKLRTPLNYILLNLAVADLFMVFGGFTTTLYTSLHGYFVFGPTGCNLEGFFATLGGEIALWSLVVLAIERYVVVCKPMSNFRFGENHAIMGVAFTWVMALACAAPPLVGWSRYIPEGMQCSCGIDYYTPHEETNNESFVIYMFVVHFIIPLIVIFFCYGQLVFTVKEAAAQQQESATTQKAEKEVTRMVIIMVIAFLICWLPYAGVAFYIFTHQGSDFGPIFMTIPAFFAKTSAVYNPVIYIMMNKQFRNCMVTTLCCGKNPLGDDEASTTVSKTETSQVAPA

| Compound | EC50 [nM] |
| --- | --- |
| Cc1cc(=O)oc2cc(OC(C(=O)c3ccccc3)c3ccccc3)ccc12 (stereo not shown) [CR1] | 275 ± 26 |
| Cc1c(OCc2ccc(C(=O)O)cc2)ccc2c3c(c(=O)oc12)CCC3 [CR2] | 375 ± 21 |
| Cc1ccc(C(=O)Oc2ccc3c4c(c(=O)oc3c2)CCCC4)cc1 [CR3] | 207 ± 46 |
| Cc1c(OC(C)C(=O)OCc2ccccc2)ccc2c3c(c(=O)oc12)CCC3 (stereo not shown) [CR4] | 171 ± 23 |

From article doi:10.1101/2022.04.05.487228v1 (biorxiv, 2022)
